Experimental data from ChEMBL document CHEMBL4507310, “Data for DCP probe A-1211212” (2021).

Columns and labels:
[1] = molecular target: Type-2 angiotensin II receptor (Homo sapiens) (UniProt P50052); experiment: AT2 (h) Eurofins-Cerep binding assay; set-up: ligand concentration 0.01 nM; details: filed as agonist, Compound concentration 10.0 uM
[2] = molecular target: D(1A) dopamine receptor (Homo sapiens) (UniProt P21728); experiment: D1 (h) Eurofins-Cerep binding assay; set-up: ligand concentration 0.3 nM; details: filed as antagonist, Compound concentration 10.0 uM
[3] = molecular target: D(2) dopamine receptor (Homo sapiens) (UniProt P14416); experiment: D2S (h) Eurofins-Cerep binding assay; set-up: ligand concentration 0.3 nM; details: filed as antagonist, Compound concentration 10.0 uM
[4] = molecular target: Tumor necrosis factor (Homo sapiens) (UniProt P01375); experiment: TNF-alpha (h) Eurofins-Cerep binding assay; set-up: ligand concentration 0.1 nM; details: filed as agonist, Compound concentration 10.0 uM
[5] = molecular target: Histamine H2 receptor (Homo sapiens) (UniProt P25021); experiment: H2 (h) Eurofins-Cerep binding assay; set-up: ligand concentration 0.075 nM; details: filed as antagonist, Compound concentration 10.0 uM
[6] = molecular target: Motilin receptor (Homo sapiens) (UniProt O43193); experiment: motilin (h Eurofins-Cerep binding assay; set-up: ligand concentration 0.05 nM; details: filed as agonist, Compound concentration 10.0 uM
[7] = molecular target: Substance-K receptor (Homo sapiens) (UniProt P21452); experiment: NK2 (h) Eurofins-Cerep binding assay; set-up: ligand concentration 0.1 nM; details: filed as agonist, Compound concentration 10.0 uM
[8] = molecular target: Delta-type opioid receptor (Homo sapiens) (UniProt P41143); experiment: delta (DOP) (h) Eurofins-Cerep binding assay; set-up: ligand concentration 0.5 nM; details: filed as agonist, Compound concentration 10.0 uM
[9] = molecular target: Androgen receptor (Homo sapiens) (UniProt P10275); experiment: AR (h) Eurofins-Cerep binding assay; set-up: ligand concentration 1 nM; details: filed as agonist, Compound concentration 10.0 uM
[10] = organism: Rattus norvegicus; experiment: SKCa channel Eurofins-Cerep binding assay; set-up: ligand concentration 0.007 nM; details: filed as antagonist, Compound concentration 10.0 uM
[11] = test system: Tyrosine-protein kinase ABL1 (Homo sapiens), P00519 [H396P]; details: Compound concentration 1000.0 nM
[12] = test system: Tyrosine-protein kinase ABL1 (Homo sapiens), P00519 [M351T]; details: Compound concentration 1000.0 nM
[13] = molecular target: Cytoplasmic tyrosine-protein kinase BMX (Homo sapiens) (UniProt P51813); details: Compound concentration 1000.0 nM
[14] = molecular target: Cyclin-dependent kinase-like 2 (Homo sapiens) (UniProt Q92772); details: Compound concentration 1000.0 nM
[15] = molecular target: Casein kinase I isoform gamma-2 (Homo sapiens) (UniProt P78368); details: Compound concentration 1000.0 nM
[16] = molecular target: Myotonin-protein kinase (Homo sapiens) (UniProt Q09013); details: Compound concentration 1000.0 nM
[17] = molecular target: Ephrin type-A receptor 5 (Homo sapiens) (UniProt P54756); details: Compound concentration 1000.0 nM
[18] = molecular target: Ephrin type-A receptor 8 (Homo sapiens) (UniProt P29322); details: Compound concentration 1000.0 nM
[19] = molecular target: Ephrin type-B receptor 1 (Homo sapiens) (UniProt P54762); details: Compound concentration 1000.0 nM
[20] = molecular target: Ephrin type-B receptor 2 (Homo sapiens) (UniProt P29323); details: Compound concentration 1000.0 nM
[21] = molecular target: Fibroblast growth factor receptor 2 (Homo sapiens) (UniProt P21802); details: Compound concentration 1000.0 nM
[22] = test system: Receptor-type tyrosine-protein kinase FLT3 (Homo sapiens), P36888 [UNDEFINED MUTATION]; details: Compound concentration 1000.0 nM
[23] = molecular target: Beta-adrenergic receptor kinase 1 (Homo sapiens) (UniProt P25098); details: Compound concentration 1000.0 nM
[24] = molecular target: G protein-coupled receptor kinase 4 (Homo sapiens) (UniProt P32298); details: Compound concentration 1000.0 nM
[25] = molecular target: Inhibitor of nuclear factor kappa-B kinase subunit beta (Homo sapiens) (UniProt O14920); details: Compound concentration 1000.0 nM
[26] = molecular target: Interleukin-1 receptor-associated kinase 3 (Homo sapiens) (UniProt Q9Y616); details: Compound concentration 1000.0 nM
[27] = molecular target: Serine/threonine-protein kinase LATS2 (Homo sapiens) (UniProt Q9NRM7); details: Compound concentration 1000.0 nM
[28] = molecular target: Serine/threonine-protein kinase STK11 (Homo sapiens) (UniProt Q15831); details: Compound concentration 1000.0 nM
[29] = molecular target: Leukocyte tyrosine kinase receptor (Homo sapiens) (UniProt P29376); details: Compound concentration 1000.0 nM
[30] = molecular target: Mitogen-activated protein kinase kinase kinase 4 (Homo sapiens) (UniProt Q9Y6R4); details: Compound concentration 1000.0 nM
[31] = molecular target: Dual specificity mitogen-activated protein kinase kinase 1 (Homo sapiens) (UniProt Q02750); details: Compound concentration 1000.0 nM
[32] = molecular target: MAP kinase-interacting serine/threonine-protein kinase 1 (Homo sapiens) (UniProt Q9BUB5); details: Compound concentration 1000.0 nM
[33] = molecular target: Serine/threonine-protein kinase Nek11 (Homo sapiens) (UniProt Q8NG66); details: Compound concentration 1000.0 nM
[34] = molecular target: Mitogen-activated protein kinase kinase kinase 14 (Homo sapiens) (UniProt Q99558); details: Compound concentration 1000.0 nM
[35] = molecular target: Serine/threonine-protein kinase PAK 1 (Homo sapiens) (UniProt Q13153); details: Compound concentration 1000.0 nM
[36] = test system: Phosphatidylinositol 4,5-bisphosphate 3-kinase catalytic subunit alpha isoform (Homo sapiens), P42336 [M1043I]; details: Compound concentration 1000.0 nM
[37] = molecular target: Protein kinase C delta type (Homo sapiens) (UniProt Q05655); details: Compound concentration 1000.0 nM
[38] = molecular target: RAF proto-oncogene serine/threonine-protein kinase (Homo sapiens) (UniProt P04049); details: Compound concentration 1000.0 nM
[39] = molecular target: Serine/threonine-protein kinase RIO1 (Homo sapiens) (UniProt Q9BRS2); details: Compound concentration 1000.0 nM
[40] = molecular target: Receptor-interacting serine/threonine-protein kinase 2 (Homo sapiens) (UniProt O43353); details: Compound concentration 1000.0 nM
[41] = molecular target: Serine/threonine-protein kinase Sgk2 (Homo sapiens) (UniProt Q9HBY8); details: Compound concentration 1000.0 nM
[42] = molecular target: SRSF protein kinase 1 (Homo sapiens) (UniProt Q96SB4); details: Compound concentration 1000.0 nM
[43] = molecular target: SRSF protein kinase 3 (Homo sapiens) (UniProt Q9UPE1); details: Compound concentration 1000.0 nM
[44] = molecular target: Serine/threonine-protein kinase TAO1 (Homo sapiens) (UniProt Q7L7X3); details: Compound concentration 1000.0 nM
[45] = molecular target: Serine/threonine-protein kinase WNK4 (Homo sapiens) (UniProt Q96J92); details: Compound concentration 1000.0 nM
[46] = molecular target: 5-hydroxytryptamine receptor 1D (Homo sapiens) (UniProt P28221); details: Compound concentration 10.0 uM

Sequence of Ephrin type-B receptor 2 (Homo sapiens) (P29323 whole entry): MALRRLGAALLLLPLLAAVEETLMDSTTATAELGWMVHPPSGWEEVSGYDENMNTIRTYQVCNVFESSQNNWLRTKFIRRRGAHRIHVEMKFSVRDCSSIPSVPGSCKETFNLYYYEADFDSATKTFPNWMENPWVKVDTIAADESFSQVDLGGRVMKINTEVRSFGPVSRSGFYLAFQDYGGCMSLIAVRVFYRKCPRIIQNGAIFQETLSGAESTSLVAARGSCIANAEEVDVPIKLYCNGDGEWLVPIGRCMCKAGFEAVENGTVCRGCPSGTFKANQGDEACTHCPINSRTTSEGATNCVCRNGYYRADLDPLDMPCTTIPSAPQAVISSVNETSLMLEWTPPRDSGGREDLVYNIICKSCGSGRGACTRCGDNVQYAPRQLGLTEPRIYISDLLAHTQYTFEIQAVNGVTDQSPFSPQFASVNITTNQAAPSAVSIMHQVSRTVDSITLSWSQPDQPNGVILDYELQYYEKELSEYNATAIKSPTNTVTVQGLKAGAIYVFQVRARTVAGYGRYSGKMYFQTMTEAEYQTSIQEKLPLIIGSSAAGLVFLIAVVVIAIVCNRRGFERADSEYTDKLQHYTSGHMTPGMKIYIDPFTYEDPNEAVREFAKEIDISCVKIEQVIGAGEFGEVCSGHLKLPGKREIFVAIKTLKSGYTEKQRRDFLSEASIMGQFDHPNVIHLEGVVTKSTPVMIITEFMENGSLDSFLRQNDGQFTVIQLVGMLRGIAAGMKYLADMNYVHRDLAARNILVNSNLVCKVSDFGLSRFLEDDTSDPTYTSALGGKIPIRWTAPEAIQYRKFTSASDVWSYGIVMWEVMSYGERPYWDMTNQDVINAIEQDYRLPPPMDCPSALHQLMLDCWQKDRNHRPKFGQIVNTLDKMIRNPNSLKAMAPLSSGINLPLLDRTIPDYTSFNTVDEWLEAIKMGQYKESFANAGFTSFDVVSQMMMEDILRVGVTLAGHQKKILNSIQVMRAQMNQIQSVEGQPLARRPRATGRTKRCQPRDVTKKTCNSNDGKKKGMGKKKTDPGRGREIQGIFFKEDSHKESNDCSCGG
Sequence of D(2) dopamine receptor (Homo sapiens) (P14416 whole entry): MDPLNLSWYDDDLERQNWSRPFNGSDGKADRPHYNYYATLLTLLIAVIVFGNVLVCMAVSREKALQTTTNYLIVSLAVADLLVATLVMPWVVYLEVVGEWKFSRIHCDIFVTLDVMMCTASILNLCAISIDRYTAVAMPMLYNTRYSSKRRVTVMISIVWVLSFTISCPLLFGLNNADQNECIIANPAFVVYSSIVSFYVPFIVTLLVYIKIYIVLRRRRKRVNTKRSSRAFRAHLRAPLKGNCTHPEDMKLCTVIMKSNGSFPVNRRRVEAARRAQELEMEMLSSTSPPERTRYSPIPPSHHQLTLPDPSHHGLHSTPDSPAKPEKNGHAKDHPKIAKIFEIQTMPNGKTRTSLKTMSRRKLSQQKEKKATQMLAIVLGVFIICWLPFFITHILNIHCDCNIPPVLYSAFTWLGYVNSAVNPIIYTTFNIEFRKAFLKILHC
Sequence of Protein kinase C delta type (Homo sapiens) (Q05655 whole entry, looked up): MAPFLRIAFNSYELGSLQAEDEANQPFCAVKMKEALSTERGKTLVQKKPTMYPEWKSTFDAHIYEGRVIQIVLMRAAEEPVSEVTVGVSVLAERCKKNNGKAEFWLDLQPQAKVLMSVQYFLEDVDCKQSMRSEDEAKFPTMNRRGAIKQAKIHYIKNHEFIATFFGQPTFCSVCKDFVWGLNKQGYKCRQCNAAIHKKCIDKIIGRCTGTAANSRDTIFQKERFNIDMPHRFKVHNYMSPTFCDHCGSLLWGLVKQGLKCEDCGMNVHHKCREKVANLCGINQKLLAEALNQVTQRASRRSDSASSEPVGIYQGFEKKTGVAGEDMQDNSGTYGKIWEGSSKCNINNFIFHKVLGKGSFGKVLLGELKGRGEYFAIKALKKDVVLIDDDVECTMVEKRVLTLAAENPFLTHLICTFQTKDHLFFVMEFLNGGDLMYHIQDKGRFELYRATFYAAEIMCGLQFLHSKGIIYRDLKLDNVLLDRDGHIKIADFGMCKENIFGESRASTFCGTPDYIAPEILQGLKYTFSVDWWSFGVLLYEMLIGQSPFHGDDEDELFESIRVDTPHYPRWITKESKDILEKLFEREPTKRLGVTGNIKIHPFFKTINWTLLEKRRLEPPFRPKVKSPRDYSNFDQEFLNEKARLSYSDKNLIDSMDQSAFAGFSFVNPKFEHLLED
Sequence of Substance-K receptor (Homo sapiens) (P21452 whole entry): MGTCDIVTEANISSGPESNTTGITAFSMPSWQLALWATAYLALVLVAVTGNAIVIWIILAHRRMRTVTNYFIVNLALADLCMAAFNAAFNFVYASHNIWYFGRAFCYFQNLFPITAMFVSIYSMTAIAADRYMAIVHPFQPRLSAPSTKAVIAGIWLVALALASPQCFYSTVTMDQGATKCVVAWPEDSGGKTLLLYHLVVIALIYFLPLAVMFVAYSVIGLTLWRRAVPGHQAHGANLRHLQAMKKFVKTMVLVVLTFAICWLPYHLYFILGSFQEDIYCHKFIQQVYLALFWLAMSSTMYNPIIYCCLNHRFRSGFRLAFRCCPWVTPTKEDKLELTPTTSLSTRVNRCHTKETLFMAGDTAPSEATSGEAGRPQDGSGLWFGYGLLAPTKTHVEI
Sequence of SRSF protein kinase 3 (Homo sapiens) (Q9UPE1 whole entry): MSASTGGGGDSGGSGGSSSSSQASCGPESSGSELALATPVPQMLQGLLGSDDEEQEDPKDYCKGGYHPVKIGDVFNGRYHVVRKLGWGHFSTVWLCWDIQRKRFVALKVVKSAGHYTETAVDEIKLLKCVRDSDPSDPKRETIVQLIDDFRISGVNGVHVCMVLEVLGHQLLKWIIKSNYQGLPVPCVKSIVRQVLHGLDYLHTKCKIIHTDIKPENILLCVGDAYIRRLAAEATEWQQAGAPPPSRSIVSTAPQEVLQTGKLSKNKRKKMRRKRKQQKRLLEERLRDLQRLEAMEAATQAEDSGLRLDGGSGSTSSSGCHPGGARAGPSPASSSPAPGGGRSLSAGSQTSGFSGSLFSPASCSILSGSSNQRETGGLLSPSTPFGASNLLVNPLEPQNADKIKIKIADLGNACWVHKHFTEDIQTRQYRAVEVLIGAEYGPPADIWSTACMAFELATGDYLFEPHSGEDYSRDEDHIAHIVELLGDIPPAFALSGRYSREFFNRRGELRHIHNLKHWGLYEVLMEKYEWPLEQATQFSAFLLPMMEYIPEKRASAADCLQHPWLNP
Sequence of Motilin receptor (Homo sapiens) (O43193 whole entry): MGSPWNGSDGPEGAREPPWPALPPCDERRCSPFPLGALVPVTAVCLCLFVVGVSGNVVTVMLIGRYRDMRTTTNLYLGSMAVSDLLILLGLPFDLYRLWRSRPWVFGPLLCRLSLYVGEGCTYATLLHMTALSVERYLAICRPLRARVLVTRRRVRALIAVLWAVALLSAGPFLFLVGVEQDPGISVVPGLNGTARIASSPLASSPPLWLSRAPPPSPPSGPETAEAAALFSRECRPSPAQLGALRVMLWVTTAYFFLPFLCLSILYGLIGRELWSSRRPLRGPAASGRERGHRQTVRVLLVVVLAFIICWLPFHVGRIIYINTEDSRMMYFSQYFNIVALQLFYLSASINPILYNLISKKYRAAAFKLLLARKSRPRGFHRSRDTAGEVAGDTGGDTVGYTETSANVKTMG
Sequence of Casein kinase I isoform gamma-2 (Homo sapiens) (P78368 whole entry, looked up, canonical isoform): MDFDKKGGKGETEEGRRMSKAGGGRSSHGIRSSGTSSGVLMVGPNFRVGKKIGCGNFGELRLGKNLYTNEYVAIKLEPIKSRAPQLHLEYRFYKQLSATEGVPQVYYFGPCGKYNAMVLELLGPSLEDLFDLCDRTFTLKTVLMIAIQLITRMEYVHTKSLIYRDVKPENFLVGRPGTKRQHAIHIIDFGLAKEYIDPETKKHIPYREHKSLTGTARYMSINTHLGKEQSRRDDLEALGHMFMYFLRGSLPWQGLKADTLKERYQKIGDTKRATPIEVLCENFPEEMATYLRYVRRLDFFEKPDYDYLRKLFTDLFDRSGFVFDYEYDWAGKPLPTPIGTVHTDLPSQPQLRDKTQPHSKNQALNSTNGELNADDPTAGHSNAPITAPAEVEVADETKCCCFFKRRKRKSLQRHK
Sequence of Fibroblast growth factor receptor 2 (Homo sapiens) (P21802 22-821 limits assumed): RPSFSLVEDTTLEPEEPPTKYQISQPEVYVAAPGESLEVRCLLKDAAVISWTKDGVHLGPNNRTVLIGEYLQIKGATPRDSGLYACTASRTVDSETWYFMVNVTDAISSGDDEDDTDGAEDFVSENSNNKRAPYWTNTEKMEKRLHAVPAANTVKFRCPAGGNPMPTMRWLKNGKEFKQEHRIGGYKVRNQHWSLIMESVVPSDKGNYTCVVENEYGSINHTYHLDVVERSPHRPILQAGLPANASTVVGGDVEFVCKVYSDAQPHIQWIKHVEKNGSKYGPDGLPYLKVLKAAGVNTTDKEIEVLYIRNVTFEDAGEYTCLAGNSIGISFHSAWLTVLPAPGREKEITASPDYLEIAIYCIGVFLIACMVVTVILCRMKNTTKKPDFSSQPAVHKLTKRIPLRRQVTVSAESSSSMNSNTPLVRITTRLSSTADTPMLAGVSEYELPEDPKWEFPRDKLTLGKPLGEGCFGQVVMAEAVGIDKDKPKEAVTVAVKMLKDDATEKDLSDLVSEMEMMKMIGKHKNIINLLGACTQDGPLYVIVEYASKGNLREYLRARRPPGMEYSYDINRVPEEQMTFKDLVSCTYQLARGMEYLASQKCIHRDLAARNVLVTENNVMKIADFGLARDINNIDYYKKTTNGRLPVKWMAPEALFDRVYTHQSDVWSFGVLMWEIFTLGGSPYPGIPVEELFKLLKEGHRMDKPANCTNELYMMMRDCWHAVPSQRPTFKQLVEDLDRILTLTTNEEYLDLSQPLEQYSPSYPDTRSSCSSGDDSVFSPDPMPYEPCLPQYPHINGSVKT
Sequence of Tumor necrosis factor (Homo sapiens) (P01375 whole entry): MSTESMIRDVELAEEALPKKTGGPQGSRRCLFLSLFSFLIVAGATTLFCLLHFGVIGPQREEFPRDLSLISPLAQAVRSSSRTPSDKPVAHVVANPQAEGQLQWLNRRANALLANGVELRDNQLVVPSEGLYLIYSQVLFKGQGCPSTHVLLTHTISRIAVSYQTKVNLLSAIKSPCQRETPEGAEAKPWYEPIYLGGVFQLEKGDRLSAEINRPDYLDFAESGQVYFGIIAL

## O=C(NS(=O)(=O)c1ccc(NCC2CCOCC2)c([N+](=O)[O-])c1)c1ccc(N2CCN(Cc3ccc(C(F)(F)F)cc3-c3ccc(Cl)cc3)CC2)cc1Oc1cnc2[nH]ccc2c1 [A-1210227]
[1]
  % Inhibition of Control Specific Binding (Mean n=2): 5.3%
[2]
  % Inhibition of Control Specific Binding (Mean n=2): 6.4%
[3]
  % Inhibition of Control Specific Binding (Mean n=2): 15.2%
[4]
  % Inhibition of Control Specific Binding (Mean n=2): -42%
[5]
  % Inhibition of Control Specific Binding (Mean n=2): -948%
[6]
  % Inhibition of Control Specific Binding (Mean n=2): -13%
[7]
  % Inhibition of Control Specific Binding (Mean n=2): -2.4%
[8]
  % Inhibition of Control Specific Binding (Mean n=2): 7.4%
[9]
  % Inhibition of Control Specific Binding (Mean n=2): -0.7%
[10]
  % Inhibition of Control Specific Binding (Mean n=2): -4.8%
[11]
  residual activity: 92%
[12]
  residual activity: 100%
[13]
  residual activity: 100%
[14]
  residual activity: 100%
[15]
  residual activity: 100%
[16]
  residual activity: 100%
[17]
  residual activity: 76%
[18]
  residual activity: 84%
[19]
  residual activity: 100%
[20]
  residual activity: 100%
[21]
  residual activity: 100%
[22]
  residual activity: 88%
[23]
  residual activity: 91%
[24]
  residual activity: 100%
[25]
  residual activity: 74%
[26]
  residual activity: 100%
[27]
  residual activity: 100%
[28]
  residual activity: 100%
[29]
  residual activity: 100%
[30]
  residual activity: 94%
[31]
  residual activity: 92%
[32]
  residual activity: 99%
[33]
  residual activity: 97%
[34]
  residual activity: 65%
[35]
  residual activity: 100%
[36]
  residual activity: 51%
[37]
  residual activity: 100%
[38]
  residual activity: 100%
[39]
  residual activity: 100%
[40]
  residual activity: 100%
[41]
  residual activity: 100%
[42]
  residual activity: 100%
[43]
  residual activity: 100%
[44]
  residual activity: 87%
[45]
  residual activity: 71%
[46]
  inhibition: -6.27%

## CO[C@H]1CC[C@H](CNc2ccc(S(=O)(=O)NC(=O)c3ccc(N4CCN(CC5=C(c6ccc(Cl)cc6)CC(C)(C)CC5)CC4)cc3Oc3cnc4[nH]ccc4c3)cc2[N+](=O)[O-])CC1 [A-1211212]
[1]
  % Inhibition of Control Specific Binding (Mean n=2): 4.7%
[2]
  % Inhibition of Control Specific Binding (Mean n=2): 0.7%
[3]
  % Inhibition of Control Specific Binding (Mean n=2): 10.3%
[4]
  % Inhibition of Control Specific Binding (Mean n=2): -20.3%
[5]
  % Inhibition of Control Specific Binding (Mean n=2): -22%
[6]
  % Inhibition of Control Specific Binding (Mean n=2): -20.5%
[7]
  % Inhibition of Control Specific Binding (Mean n=2): -6.1%
[8]
  % Inhibition of Control Specific Binding (Mean n=2): 2.8%
[9]
  % Inhibition of Control Specific Binding (Mean n=2): -8.6%
[10]
  % Inhibition of Control Specific Binding (Mean n=2): -12.6%
[11]
  residual activity: 94%
[12]
  residual activity: 85%
[13]
  residual activity: 95%
[14]
  residual activity: 100%
[15]
  residual activity: 80%
[16]
  residual activity: 91%
[17]
  residual activity: 78%
[18]
  residual activity: 84%
[19]
  residual activity: 84%
[20]
  residual activity: 75%
[21]
  residual activity: 100%
[22]
  residual activity: 100%
[23]
  residual activity: 85%
[24]
  residual activity: 100%
[25]
  residual activity: 100%
[26]
  residual activity: 100%
[27]
  residual activity: 100%
[28]
  residual activity: 59%
[29]
  residual activity: 100%
[30]
  residual activity: 90%
[31]
  residual activity: 99%
[32]
  residual activity: 90%
[33]
  residual activity: 100%
[34]
  residual activity: 100%
[35]
  residual activity: 78%
[36]
  residual activity: 74%
[37]
  residual activity: 70%
[38]
  residual activity: 94%
[39]
  residual activity: 100%
[40]
  residual activity: 85%
[41]
  residual activity: 91%
[42]
  residual activity: 96%
[43]
  residual activity: 100%
[44]
  residual activity: 88%
[45]
  residual activity: 67%
[46]
  inhibition: 8.17%
